From patent publication US8815953B2, “Formulations of vitamin K analogs for topical use” (Spectrum Pharmaceuticals, Inc., priority 2008, dated 2014)

Tests used:
[1] = Estimated solubility of menadione in single solvents; type: physicochemical
Protocol: This study focused on evaluating the solubility properties of menadione in hydrophilic and lipophilic excipients used in topical pharmaceutical products. Initially, solubility studies were conducted in single solvents.

[2] = system: EGFR and other growth factor-related phosphatase; conditions: cited from earlier work
[3] = In vitro percutaneous absorption of (14C)-Menadione Study #2, abraded skin; type: in vitro ADME, human; conditions: abraded skin versus normal skin
Protocol: Percutaneous absorption of (^14C)-Menadione was also evaluated using abraded human skin in the lead formulation at 0.05, 0.1, and 0.2% Menadione and the backup formulation at 0.2% Menadione. Abraded skin was evaluated as a possible simulation of the type of broken and/or compromised skin that may be present in the case of a skin rash caused by an EGFR inhibitor. The respective skin permeation values are presented in: Table 18.

EGFR-mediated signaling = conditions: topical application, secondary to systemic erlotinib and cetuximab; cited from earlier work
[4] = Menadione compatibility with single solvent systems (1% w/w solutions, 1 month storage); type: physicochemical
Protocol: Based on the single solvent solubility data, a menadione compatibility study with selected solvents was conducted. Solutions containing 1% w/w of menadione were prepared, packaged in borosilicate clear glass vials, wrapped in aluminum foil and stored at 5° C. (dark), 25° C. (dark), and 40° C. (dark) for a period of 1 month. The physico-chemical properties of the 1% menadione single solvent solutions are presented in: Table 2.

CC1=CC(=O)c2ccccc2C1=O [Menadione, 2-methyl-1,4-naphthoquinone]
Estimated Solubility ([1]; in Benzyl Alcohol): Greater than 10% w/w
Estimated Solubility ([1]; in Dimethyl Isosorbide): Greater than 10% w/w
Estimated Solubility ([1]; in Mineral Oil): Less than 0.1% w/w
Estimated Solubility ([1]; in Polyethylene Glycol 400): Greater than 2% w/w
Estimated Solubility ([1]; in Propylene Glycol): Less than 1% w/w
Estimated Solubility ([1]; in Purified Water): Less than 0.04% w/w
EGF activating activity [2]: direct EGF activating activity
EGFR and other growth factor-related phosphatase inhibitory activity [2]: inhibitory activity
Epidermal levels of the drug [3]: lower
EGFR-mediated signaling in human skin (EGFR-mediated signaling): restore EGFR-mediated signaling
Compatibility of menadione with solvent (physical appearance and potency by HPLC) ([4]; caprylic/capric triglyceride, diethyl sebacate, diisopropyl adipate, isopropyl myristate, 1 month at 5, 25, 40° C. dark): compatible
Compatibility of menadione with solvent (discoloration) ([4]; dimethyl isosorbide, transcutol and polyethylene glycol 400, all conditions evaluated): signs of incompatibility
